Measured values: publication PMC3776562 (Journal of the American Chemical Society, 2013)

What was measured:
Mcl-1 [1] = target: T1, Mcl-1 (Mus musculus, UniProt P97287); assay: Stopped-flow fluorescence association kinetics of PUMA constructs with Mcl-1; format: binding; settings: chemical denaturants, lowering total protein concentration, altering temperature
T1 construct: with 151 N-terminal residues and 23 C-terminal residues removed; hexahistidine tag with thrombin cleavage site (N, cleaved yes); made in house; host or cells: Escherichia coli C41 (DE3)
Method: The synthetic genes for truncated mouse Mcl-1 (UniProt P97287) with 151 N-terminal residues and 23 C-terminal residues removed (Figure S2C) and GB1-PUMA (Figure S2D) were obtained from Genscript. The genes were inserted into a modified version of the pRSET A vector that encodes an N-terminal hexahistidine tag with a thrombin cleavage site between the tag and the protein. Due to the cleavage of thrombin, a GS is added at the N-termini of Mcl-1. Protein expression was carried out in Escherichia coli C41 (DE3) grown in LB media at 37 °C. […] Identity was confirmed using mass spectrometry, the concentration of GB1-PUMA was determined by the method of Gill von Hippel,[36] and the concentration of Mcl-1 was determined using amino acid analysis.
Mouse PUMA peptide, residues 128–161 (Uniprot Q99ML1) with the M144I mutation used in the NMR structure 2ROC[26], together with N-terminal acetylation and C-terminal amidation, was synthesized by Selleck Chemicals. […] Peptide concentration was determined using amino acid analysis and identity confirmed using mass spectrometry. […]
Association kinetics were monitored by following the change in intrinsic fluorescence on an SX18 or SX20 stopped-flow spectrometer (Applied Photophysics). […] Association kinetics were analyzed using eq 3([51]) that describes irreversible association of two proteins at initial concentrations [A]0 and [B]0: [drawing 3] […]

Mcl-1 [2] = target: T1, Mcl-1; assay: Ionic strength dependence of association rate constant (fit to eq 4); format: binding
Method: Unless otherwise stated, experiments were carried out in 50 mM sodium phosphate, pH 7.0. For the ionic strength dependence of association protein and peptide were exchanged to the low ionic strength 10 mM MOPS, pH 7.0, buffer (I = 0.004 M) and then ionic strength was controlled using [NaCl]. NaOH was titrated to maintain neutral pH upon addition of NaCl.
Association kinetics were monitored by following the change in intrinsic fluorescence on an SX18 or SX20 stopped-flow spectrometer (Applied Photophysics). All PUMA solutions were incubated at 25 °C for 30 min before use to allow for dissociation of oligomers. Because of mixing artifacts, data collected before the first 5 ms were removed before fitting. Proteins were mixed at near equal (1–0.25 μM) concentrations. Association kinetics were analyzed using eq 3([51]) that describes irreversible association of two proteins at initial concentrations [A]0 and [B]0: [drawing 3] 3 where F is fluorescence, F0 the initial fluorescence, ΔF is the fluorescence amplitude of the reaction, [A]0 is the initial concentration of one protein, [B]0 the other, x = [B]0/[A]0, k+ is the association rate constant, and t is time. Where repeat measurements were made, standard errors are shown as error bars. Errors were propagated using standard equations. […]

Mcl-1 [3] = target: T1, Mcl-1; assay: Viscosity dependence of association rate constant (glucose); format: binding; settings: glucose as viscogen; relative rate constant vs relative viscosity
Method: We measured k+ in varying concentrations of the small-molecule viscogen glucose and the observed k+ did indeed match the predicted rate constant (k0η0/η) (Figure 2B) and produce the standard viscosity plot[37] (k0/k+ vs η/η0) with the expected slope for a ‘diffusion-limited’ reaction, ∼1 (Figure 2C).
(§1) Association kinetics were monitored by following the change in intrinsic fluorescence on an SX18 or SX20 stopped-flow spectrometer (Applied Photophysics). All PUMA solutions were incubated at 25 °C for 30 min before use to allow for dissociation of oligomers. Because of mixing artifacts, data collected before the first 5 ms were removed before fitting. Proteins were mixed at near equal (1–0.25 μM) concentrations. Association kinetics were analyzed using eq 3([51]) that describes irreversible association of two proteins at initial concentrations [A]0 and [B]0: [drawing 3] 3 where F is fluorescence, F0 the initial fluorescence, ΔF is the fluorescence amplitude of the reaction, [A]0 is the initial concentration of one protein, [B]0 the other, x = [B]0/[A]0, k+ is the association rate constant, and t is time. Where repeat measurements were made, standard errors are shown as error bars. Errors were propagated using standard equations.

Mcl-1 [4] = target: T1, Mcl-1; assay: Urea dependence of association rate constant; format: binding
Source text: Urea is a denaturing cosolvent used in protein folding studies to energetically disfavor structured states. […] However, increasing urea concentrations also makes solutions more viscous. […] Further, the natural log of k+ against concentration of urea is linear, with a gradient of m = 0.55 (±0.02) M^–1 (Figure 3D).
as §1

Mcl-1 [5] = target: T1, Mcl-1; assay: Temperature dependence of association rate constant; format: binding; settings: stopped-flow fluorescence
Method: as §1

[6] = Circular dichroism, unbound PUMA helicity; format: physicochemical; settings: CD
Method: (§2) CD scans were taken in an Applied Photophysics Chirascan, using 10 to 2 mm path length cuvettes. Percentage helicity calculated using the mean residue ellipticity at 222 nm.[24]
Figure S9. Changes in helicity of PUMA peptide with solvent and temperature.
Due to the oligomerization of the PUMA peptide circular dichroism (CD) was recorded at the low concentration of 1 µM with a 10 mm pathlength cuvette to maximize signal.
Errors due to buffer subtraction and high absorbances prevent quantitative analysis of these spectra. However, each individual figure was recorded on the same day so qualitative conclusions can be drawn. (a) The helicity of the PUMA peptide is highly temperature dependent, with lower temperatures favoring helical conformations. (b) Increasing concentration of the denaturant urea results in the disfavoring of helical […]
significant change in CD signal.

Mcl-1 [7] = target: T1, Mcl-1; assay: Circular dichroism of 1:1 complex with Mcl-1; format: binding; settings: CD
Source text: as §2

[8] = PUMA peptide oligomerization (CD, size-exclusion chromatography, SDS-PAGE); format: physicochemical
Source text: as §2
Figure S3. PUMA peptide undergoes reversible oligomerization to an α-helical structure. (a) The Circular dichroism spectra of the PUMA peptide becomes more α-helical at higher concentrations, consistent with the formation of an α-helical oligomer.
(b) Oligomers are visible on denaturing SDS-PAGE gel of PUMA peptide at ~10-100 µM concentrations. White numbers refer to elution volumes from FPLC trace (c). (c) […]
PUMA oligomers (i), for comparison a trace for a similar size monomeric peptide is […]
-200 Monomeric BH3 peptide
(1 picture or pasted object on this page, not shown here)

[9] = Intrinsic tryptophan fluorescence emission spectra; format: physicochemical; settings: excitation at 280 nm; unbound
Method: (§3) Intrinsic tryptophan fluorescence was also used to probe the structural changes in these proteins upon association.
(§4) Figure S4. Fluorescence spectra of Mcl-1 and PUMA peptide show Mcl-1 is folded, PUMA is unfolded and binding occurs. […]
(§5) fluorescence spectrum characteristic of buried tryptophans whereas PUMA (blue) […]
(§6) An increase in fluorescence is seen upon mixing 1 µM: 1 µM of Mcl-1 and PUMA peptide. 1:1 complex (black solid line) […]
(§7) a greater signal than the spectrum predicted for no interaction (dashed line), which is the sum of the PUMA alone (blue) and Mcl-1 alone (magenta) spectra.

Mcl-1 [10] = target: T1, Mcl-1; assay: Fluorescence change on complex formation with Mcl-1; settings: binding to Mcl-1; intrinsic tryptophan fluorescence
Method: as §3, §4, §5, §6, §7

folded Bcl-2 members = settings: cited from earlier work
Source text: The binding of BH3 regions to folded Bcl-2 family members is, due to their important physiological role and the large number of homologues, one of the most heavily studied coupled folding and binding reactions, particularly with respect to equilibrium binding constants obtained and structures solved.[21],[29] BH3 peptides have potential therapeutic value and have been the focus for the design of peptide-based mimics, including hydrocarbon staples,[42] α/β-peptides,[43] miniature proteins[44] and photoswitchable peptides.[45] To understand the general principles of binding, knowledge of kinetic ...

[11] = target: truncated mouse Mcl-1 (induced myeloid leukemia cell differentiation protein), 151 N-terminal and 23 C-terminal residues removed (mouse) (UniProt P97287); assay: stopped-flow fluorescence kinetics; intrinsic fluorescence; protein and peptide mixed at near equal concentrations (1-0.25 uM), also pseudo-first-order conditions; 50 mM sodium phosphate, pH 7.0; fit to irreversible association (eq 3)
[12] = target: the molecule itself; assay: SEC + other: concentration dependent circular dichroism and denaturing SDS-PAGE; PUMA peptide alone at concentrations above 2 uM; reversible oligomerization
[13] = target: T2, truncated mouse Mcl-1 (induced myeloid leukemia cell differentiation protein), 151 N-terminal and 23 … (mouse, UniProt P97287 152-308); assay: fluorescence kinetics after manual mixing; Mcl-1 and PUMA solutions manually mixed at nanomolar concentrations, fluorescence followed; fit to a model with association and dissociation; settings: both partners purified
[14] = target: T2, truncated mouse Mcl-1 (induced myeloid …); assay: stopped-flow fluorescence kinetics; intrinsic fluorescence; protein and peptide mixed at near equal concentrations (1-0.25 uM), also pseudo-first-order conditions; 50 mM sodium phosphate, pH 7.0; fit to irreversible association (eq 3); settings: both partners purified
[15] = Mcl-1 urea unfolding by intrinsic tryptophan fluorescence; format: physicochemical, mouse; settings: 1 µM Mcl-1, 25 °C, 50 mM PO4 pH 7.0, excitation 280 nm, emission 360 nm
Method: Figure S8. Mcl-1 remains folded up to 3.5 M urea. Mcl-1 fraction folded calculated
from the intrinsic tryptophan fluorescence of Mcl-1 (1 µM Mcl-1, 25 °C, 50 mM PO 4
pH 7.0, excitation at 280 nm, 10 nm pathlength, emission at 360 nm, 5nm pathlength).

Ac-VEEEEWAREIGAQLRRIADDLNAQYERRRQEEQH-NH2 [PUMA peptide]
dissociation of preformed Mcl-1 PUMA complex (Mcl-1 [1]): No solvent conditions could be found where preformed Mcl-1 PUMA complex could be observed to dissociate without unfolding the structured Mcl-1 | rate constant in the absence of long-range electrostatics k+basal (Mcl-1 [2]; 10 mM MOPS, pH 7.0 (I = 0.004 M), ionic strength controlled with NaCl, fit to eq 4, a set to 6 Å): 6 (±1) × 10^5 M^–1 s^–1 | kon (Mcl-1 [2]; read-out: association rate constant k+ at high ionic strength): 100000 to 1e+06 M⁻¹ s⁻¹ | slope of viscosity plot (k0/k+ vs η/η0) (Mcl-1 [3]): 1.13 ± 0.02 | effect of urea on k+ (Mcl-1 [4]; increasing urea, compared with prediction from viscosity k0η0/η): decreased by significantly more than what would be expected due to viscosity effects alone | m, gradient of ln(k+) against urea concentration (Mcl-1 [4]; urea 0 upward, stopped-flow): 0.55 (±0.02) M^–1 | effect of temperature on association (Mcl-1 [5]): An increase in temperature accelerates association | change in helicity with temperature ([6]; 1 µM, 10 mm pathlength cuvette, 15–60 °C, qualitative): less helical at higher temperatures | change in intrinsic helicity with ionic strength and urea ([6]; 1 µM, 10 mm pathlength cuvette, urea 0–3 M, I 4–214 mM, qualitative): showed little ionic strength dependence but was reduced in the presence of urea | residual helicity in the unbound state ([6]; mean residue ellipticity at 222 nm, 50 mM PO4, pH 7.0, 25 °C): ~20% | helicity on binding Mcl-1 (Mcl-1 [7]): increased α-helicity relative to the two proteins in isolation | concentration above which reversible oligomerization to highly α-helical structure occurs ([8]; concentration dependent CD, size-exclusion chromatography and denaturing SDS-PAGE): above 2 μM | concentration at which oligomers are visible on gel ([8]; denaturing SDS-PAGE): 10 to 100 µM | fluorescence emission maximum [9]: 360 nm | overall fluorescence change upon complex formation (Mcl-1 [10]): significant increase in overall fluorescence upon complex formation | affinity for folded Bcl-2 members relative to other BH3 peptides (folded Bcl-2 members): greater affinity than most other BH3 peptides

GB1-PUMA: 90 aa chain containing a soluble GB1 domain fused to the N-terminus of the 34 aa PUMA peptide (from UniProt Q99ML1 128-161)
kon [11]: 1.29e+07 M⁻¹ s⁻¹

Ac-VEEEEWAREIGAQLRRIADDLNAQYERRRQEEQH-NH2 (peptide, UniProt Q99ML1 128-161, looked up) [Mouse PUMA peptide, residues 128-161, M144I, N-terminal acetylation and C-terminal amidation]
binding result [12]: binds | Kd [13]: 0.1 nM | koff [13]: 0.0016 s⁻¹ | kon [14]: 1.59e+07 M⁻¹ s⁻¹

B1: Mcl-1: truncated mouse Mcl-1 (UniProt P97287) with 151 N-terminal residues and 23 C-terminal residues removed; GS added at N-terminus (protein)
chain: GSEDDLYRQSLEIISRYLREQATGSKDSKPLGEAGAAGRRALETLRRVGDGVQRNHETAFQGMLRKLDIKNEGDVKSFSRVMVHVFKDGVTNWGRIVTLISFGAFVAKHLKSVNQESFIEPLAETITDVLVRTKRDWLVKQRGWDGFVEFFHVQDLEGG
modifications: left off: His6, N-terminal, cleaved
notes: truncated mouse Mcl-1 (UniProt P97287) with 151 N-terminal residues and 23 C-terminal residues removed; GS added at N-terminus
fluorescence emission maximum [9]: 330 nm | urea concentration up to which protein remains folded [15]: 3.5 M
